Measurements from patent publication US20220081412A1, “QUINOLINYL-PYRAZINE-CARBOXAMIDE COMPOUNDS AND USES THEREOF” (The Regents of the University of Michigan, priority 2018, published 2022).

System: MIA PaCa-2 cells
Test: Bru-seq analysis for nascent RNA synthesis (log2FC of genes, GSEA gene sets)
Assay type: cell-based, human
[1] = downregulated gene sets, C2, 4 h, MIA PaCa-2 cells

SMILES: CCN(CC)CCCC(C)Nc1cnc(C(=O)Nc2cc(C)cc3cccnc23)cn1 (stereo not drawn) [J4, 5-((5-(diethylamino)pentan-2-yl)amino)-N-(6-methylquinolin-8-yl)pyrazine-2-carboxamide]
- ES: 0.576
- NES: 1.841
- synthesis of INSIG1, DHCR7, MVK and MSMO1 RNAs: upregulated
- expression of GPR135, SPDYA and ABCA1 (4 h): significant decrease
- Cell Cycle, Mitotic pathway (4 h of treatment): upregulated
- log2FC (AC004076.2, 4 h): −0.85
- log2FC (AC005534.1, 4 h): −0.75
- log2FC (AC005614.2, 4 h): −0.94
- log2FC (AC006141.1, 4 h): −0.78
- log2FC (AC007038.2, 4 h): −1.27
- log2FC (AC007619.1, 4 h): −0.84
- log2FC (AC007620.2, 4 h): −0.89
- log2FC (AC008115.3, 4 h): 0.78
- log2FC (AC008264.2, 4 h): −0.80
- log2FC (AC008906.1, 4 h): −0.98
- log2FC (AC010615.1, 4 h): −1.64
- log2FC (AC011379.1, 4 h): 0.74
- log2FC (AC018630.1, 4 h): −0.77
- log2FC (AC026461.1, 4 h): 0.86
- log2FC (AC068473.5, 4 h): 0.77
- log2FC (AC080080.1, 4 h): 0.72
- log2FC (AC087280.2, 4 h): −0.80
- log2FC (AC091152.2, 4 h): −1.06
- log2FC (AC091940.1, 4 h): −0.79
- log2FC (AC098934.1, 4 h): 0.72
- log2FC (AC108471.2, 4 h): 0.85
- log2FC (AC110769.2, 4 h): 0.80
- log2FC (AC117382.1, 4 h): −0.85
- log2FC (AC141586.1, 4 h): 0.77
- log2FC (AC239868.4, 4 h): 1.12
- log2FC (AL050343.1, 4 h): −0.82
- log2FC (AL133338.1, 4 h): 1.02
- log2FC (AL136984.1, 4 h): −1.05
- log2FC (AL136987.1, 4 h): −0.83
- log2FC (AL139260.1, 4 h): 0.88
- log2FC (AP001107.9, 4 h): 0.81
- log2FC (AP001830.1, 4 h): 0.75
- log2FC (AP002387.1, 4 h): 0.72
- log2FC (AP002748.3, 4 h): 0.76
- log2FC (AVPI1, 4 h): 1.37
- log2FC (BHLHE40, 4 h): 1.32
- log2FC (CASC21, 4 h): −0.87
- log2FC (CCNG2, 4 h): 1.62
- log2FC (DDIT3, 4 h): 1.32
- log2FC (DDIT4, 4 h): 2.33
- log2FC (DEPDC1-AS1, 4 h): 1.05
- log2FC (DHCR7, 4 h): 2.13
- log2FC (DNAJC3-AS1, 4 h): 0.75
- log2FC (EXTL3-AS1, 4 h): 0.73
- log2FC (FDFT1, 4 h): 1.65
- log2FC (FP671120.1, 4 h): −1.32
- log2FC (HIST1H1E, 4 h): 1.24
- log2FC (HIST1H3B, 4 h): 1.26
- log2FC (HMGCS1, 4 h): 1.35
- log2FC (HSD17B7P2, 4 h): 0.76
- log2FC (IDI1, 4 h): 1.49
- log2FC (INSIG1, 4 h): 2.57
- log2FC (KRT18P31, 4 h): 0.81
- log2FC (LINC01204, 4 h): −0.84
- log2FC (LINC01337, 4 h): −1.19
- log2FC (LINC01547, 4 h): 0.93
- log2FC (LINC01930, 4 h): −1.00
- log2FC (LIPG, 4 h): 1.81
- log2FC (LSS, 4 h): 1.25
- log2FC (MSMO1, 4 h): 1.65
- log2FC (MVD, 4 h): 1.36
- log2FC (MVK, 4 h): 1.68
- log2FC (NEU1, 4 h): 2.68
- log2FC (PCYT2, 4 h): 1.70
- log2FC (RNVU1-6, 4 h): −1.50
- log2FC (SCD, 4 h): 1.95
- log2FC (SDR39U1, 4 h): 1.67
- log2FC (SH2D5, 4 h): 1.29
- log2FC (SLC2A1-AS1, 4 h): 1.02
- log2FC (SLC2A6, 4 h): 1.74
- log2FC (SYPL1P2, 4 h): 0.84
- log2FC (TBC1D17, 4 h): 1.62
- log2FC (TPRKBP2, 4 h): −1.15
- log2FC (TUBA1A, 4 h): 1.24
- log2FC (ZNF295-AS1, 4 h): 0.94
- ES BILD_CTNNBl_ONCOGENIC_SIGNATURE [1]: −0.449
- ES DACOSTA_UV_RESPONSE_VIA_ERCC3_COMMON_DN [1]: −0.439
- ES DACOSTA_UV_RESPONSE_VIA_ERCC3_TTD_DN [1]: −0.469
- ES DACOSTA_UV_RESPONSE_VIA_ERCC3_XPCS_DN [1]: −0.428
- ES DAZARD_UV_RESPONSE_CLUSTER_G6 [1]: −0.408
- ES DOANE_BREAST_CANCER_CLASSES_DN [1]: −0.578
- ES GABRIELY_MIR21_TARGETS [1]: −0.328
- ES GUENTHER_GROWTH_SPHERICAL_VS_ADHERENT_DN [1]: −0.531
- ES HAMAI_APOPTOSIS_VIA_TRAIL_UP [1]: −0.368
- ES HAN_JNK_SINGALING_DN [1]: −0.579
- ES HUTTMANN_B_CLL_POOR_SURVIVAL_DN [1]: −0.606
- ES KEGG_NEUROACTIVE_LIGAND_RECEPTOR_INTERACTION [1]: −0.624
- ES LEE_TARGETS_OF_PTCH1_AND_SUFU_UP [1]: −0.515
- ES MARTINEZ_RESPONSE_TO_TRABECTEDIN [1]: −0.482
- ES MILI_PSEUDOPODIA_HAPTOTAXIS_UP [1]: −0.322
- ES RAMALHO_STEMNESS_UP [1]: −0.331
- ES REACTOME_ASSOCIATION_OF_TRIC_CCT_WITH_TARGET_PROTEINS_DURING_BIOSYNTHESIS [1]: −0.551
- ES SENGUPTA_NASOPHARYNGEAL_CARCINOMA_UP [1]: −0.360
- ES SENGUPTA_NASOPHARYNGEAL_CARCINOMA_WITH_LMP1_UP [1]: −0.365
- ES TCGA_GLIOBLASTOMA_COPY_NUMBER_DN [1]: −0.533
- ES THUM_SYSTOLIC_HEART_FAILURE_DN [1]: −0.352
- ES TURASHVILI_BREAST_LOBULAR_CARCINOMA_VS_DUCTAL_NORMAL_DN [1]: −0.476
- ES ZHANG_TLX_TARGETS_36HR_DN [1]: −0.470
- ES ZHANG_TLX_TARGETS_DN [1]: −0.446
- ES ZHENG_FOXP3_TARGETS_IN_T_LYMPHOCYTE_DN [1]: −0.611
- NES BILD_CTNNBl_ONCOGENIC_SIGNATURE [1]: −1.841
- NES DACOSTA_UV_RESPONSE_VIA_ERCC3_COMMON_DN [1]: −2.348
- NES DACOSTA_UV_RESPONSE_VIA_ERCC3_TTD_DN [1]: −1.878
- NES DACOSTA_UV_RESPONSE_VIA_ERCC3_XPCS_DN [1]: −1.784
- NES DAZARD_UV_RESPONSE_CLUSTER_G6 [1]: −1.855
- NES DOANE_BREAST_CANCER_CLASSES_DN [1]: −1.830
- NES GABRIELY_MIR21_TARGETS [1]: −1.642
- NES GUENTHER_GROWTH_SPHERICAL_VS_ADHERENT_DN [1]: −1.656
- NES HAMAI_APOPTOSIS_VIA_TRAIL_UP [1]: −1.942
- NES HAN_JNK_SINGALING_DN [1]: −1.665
- NES HUTTMANN_B_CLL_POOR_SURVIVAL_DN [1]: −2.076
- NES KEGG_NEUROACTIVE_LIGAND_RECEPTOR_INTERACTION [1]: −1.898
- NES LEE_TARGETS_OF_PTCH1_AND_SUFU_UP [1]: −1.661
- NES MARTINEZ_RESPONSE_TO_TRABECTEDIN [1]: −1.727
- NES MILI_PSEUDOPODIA_HAPTOTAXIS_UP [1]: −1.718
- NES RAMALHO_STEMNESS_UP [1]: −1.615
- NES REACTOME_ASSOCIATION_OF_TRIC_CCT_WITH_TARGET_PROTEINS_DURING_BIOSYNTHESIS [1]: −1.804
- NES SENGUPTA_NASOPHARYNGEAL_CARCINOMA_UP [1]: −1.794
- NES SENGUPTA_NASOPHARYNGEAL_CARCINOMA_WITH_LMP1_UP [1]: −1.837
- NES TCGA_GLIOBLASTOMA_COPY_NUMBER_DN [1]: −1.738
- NES THUM_SYSTOLIC_HEART_FAILURE_DN [1]: −1.673
